The values below come from US9040563B2, “Dual inhibitors of farnesyltransferase and geranylgeranyltransferase I” (H. Lee Moffitt Cancer Center and Research Institute, Inc., priority 2010, dated 2015).

The test system of one experiment is survivin. In words: Western blot of survivin and PARP (apoptosis). Type of experiment: cell-based. The following applies: human cancer cells. The text has this:
(§1) Mammalian target of rapamycin (mTOR) is a serine/threonine phosphatidylinositol 3-kinase-related kinase responsible for cell growth, proliferation, cell survival, protein synthesis, and transcription. Alteration of the mTOR pathway, either through activation of oncogenes or inactivation of tumor suppressors, disrupts a signaling equilibrium and causes malignant transformation. Studies have shown that phosphorylated S6 (pS6) is related to mTOR pathway alterations, and is useful in determining PI3K-based cancer therapies (Aziz, et al. Phosphatidylinositol-3-Kinase as a Therapeutic Target in Melanoma. Clin Cancer Res. 2009, 15; 3029-3036). Two breast adenocarcinoma and a pancreatic carcinoma cell line were treated with indicated concentrations of FGTI-2734, GGTI-2417 or FTI-2153. Protein extracts were run on a Western Blot using antibody against pS6 (ser240/244) (Cell Signaling Technology, Inc., Danvers, Mass.). […] Antibodies used were HDJ-2 (Lab Vision Corporation, Fremont, Calif.), Rapt (Santa Cruz Biotechnology, Santa Cruz, Calif.), K-Ras (EMD4 Biosciences (Calbiochem), Gibbstown, N.J.), P27 (BD Biosciences, San Jose, Calif.), Actin (Sigma-Aldrich, St. Louis, Mo.), Survivin (Santa Cruz Biotechnology, Santa Cruz, Calif.), and PARP (Roche, Indianapolis, Ind.).
On the technique in general: A western blot detects proteins with antibodies after separation by electrophoresis.

Experiment [1] deals with geranylgeranylation of Rap1A. In words: Whole cell inhibition of Rap1A processing (geranylgeranylation), immunoblot, oncogenic H-Ras-transformed NIH3T3 cells. Type of experiment: cell-based, mouse. As to conditions: Mus musculus; whole cells, oncogenic H-Ras-transformed NIH3T3; n = 3 unless stated; read-out: Rap1A processing IC50.
The target in the next experiment is hFTase (Homo sapiens, UniProt P49354+P49356). In words: In vitro hFTase inhibition: incorporation of [3H]FPP into recombinant H-Ras-CVLS. In kind it is biochemical.
Another experiment relates to K-Ras prenylation. In words: Western blot of oncogenic K-Ras processing/prenylation. In kind it is cell-based. The following applies: NIH-3T3 overexpressing oncogenic mutant K-Ras (FIG. 14) and MDA-MB-231 (FIG. 15). The protocol: Testing has shown that the dual farnesyltransferase and geranygeranyltransferase-I inhibitors are effective on pancreatic tumors (90% of all cases), colonic tumors (30% of all cases), lung tumors (30% of all cases), and breast tumors (10% of all cases). NIH-3T3 cells that overexpress oncogenic mutant K-Ras, seen in FIG. 14, and MDA-MB-231 breast cancer cells with a naturally occurring K-Ras mutation, seen in FIG. 15, were treated with indicated concentrations of FGTI-2734, GGTI-2417 or FTI-2153. FGTI-2734 but not FTI-2153 or GGTI-2417 inhibited K-Ras prenylation. As expected, GGTI-2417 inhibited the processing of Rap1 but not HDJ-2 whereas FTI-2153 inhibited the processing of HDJ-2 but not Rap1.
Mammalian target of rapamycin (mTOR) is a serine/threonine phosphatidylinositol 3-kinase-related kinase responsible for cell growth, proliferation, cell survival, protein synthesis, and transcription. Alteration of the mTOR pathway, either through activation of oncogenes or inactivation of tumor suppressors, disrupts a signaling equilibrium and causes malignant transformation. Studies have shown that phosphorylated S6 (pS6) is related to mTOR pathway alterations, and is useful in determining PI3K-based cancer therapies (Aziz, et al. Phosphatidylinositol-3-Kinase as a Therapeutic Target in Melanoma. Clin Cancer Res. 2009, 15; 3029-3036). […]

In a further experiment the test system is NCI-H460. In words: MTT proliferation/viability assay. Type of experiment: cell-based. The following applies: Homo sapiens, NCI-H460, lung. As to the method:
(§2) To determine if FGTI-2734 is more efficacious than FT or GGT-1 inhibitors, 10 human cancer pancreatic cell lines, 2 human breast cancer cell lines, 2 human lung cancer cell lines and one human prostate cancer cell line were treated with these inhibitors and determined their effects on the proliferation of these cells by MTT assay.

Another experiment deals with MDA-MB-231. In words: MTT proliferation/viability assay. In kind it is cell-based. The following applies: Homo sapiens, MDA-MB-231, MDA-MB-231, breast. The protocol:
as §2

Another experiment concerns p27Kip1. In words: Western blot of p27Kip1 protein levels. Type of experiment: cell-based. As to conditions: human cancer cells; FIG. 17.
Source text: as §1

The test system of another experiment is HPNE-K-ras. In words: MTT proliferation/viability assay. As to conditions: Homo sapiens, pancreas. In kind it is cell-based, human. The protocol: as §2
In the next experiment the test system is SW1990. In words: MTT proliferation/viability assay. In kind it is cell-based, human. As to the method: as §2
Another experiment has as its system ASPC-1. In words: MTT proliferation/viability assay. Type of experiment: cell-based, human. The protocol: as §2
In another experiment the test system is A549. In words: MTT proliferation/viability assay. Type of experiment: cell-based, human. As to conditions: Homo sapiens, A549, lung. The protocol:
as §2

The test system of another experiment is BxPC3. In words: MTT proliferation/viability assay. Type of experiment: cell-based, human. As to the method: as §2
For a further experiment, the system named is MCF-7. In words: MTT proliferation/viability assay. As to conditions: Homo sapiens, MCF7, MCF-7, breast. In kind it is cell-based, human. The protocol: as §2
The test system of the next experiment is Capan-2. In words: MTT proliferation/viability assay. In kind it is cell-based, human. As to the method:
as §2

The test system of a further experiment is HPDE-C7-Kras. In words: MTT proliferation/viability assay. Type of experiment: cell-based, human. As to conditions: pancreas. As to the method:
as §2

By IC50 is commonly meant the concentration needed to halve the response being measured. Take `Cn1cncc1CN(CCN(CC1CCCCC1)S(=O)(=O)c1ccccn1)c1ccc(C#N)cc1F` [21b, N-(2-((4-cyano-2-fluorophenyl)((1-methyl-1H-imidazol-5-yl)methyl)amino)ethyl)-N-(cyclohexylmethyl)pyridine-2-sulfonamide]: in the experiment with survivin (FIG. 18), the survivin protein levels entry is reported as “reduces”. For the same compound, in the experiment with survivin (FIG. 18 (PARP)), the apoptosis result is recorded as “induces apoptosis”. The IC50 in experiment [1] is 2700 ± 1500 nM; on hFTase (in vitro, average of three independent assays (n = 3) unless stated, errors are standard deviations), 250 ± 190 nM; with NCI-H460, 7.19 ± 1.18 µM; with MDA-MB-231 it was 12.2 ± 0.97 µM; in the experiment with HPNE-K-ras it was 14.7 ± 0.89 µM; in the experiment on SW1990 (Homo sapiens, SW1990, SW1990, pancreas), 26.3 µM. Moreover, the IC50 in the experiment with SW1990 (SW1990, pancreas, listed as FGTI-2734) amounted to 24.2 µM; with ASPC-1 (ASPC-1, pancreas, listed as FGTI-2734), 12.6 µM; with ASPC-1 (Homo sapiens, ASPC1, ASPC-1, pancreas), 11.2 µM; with A549, 13.2 ± 3.64 µM; with BxPC3 (BxPC3, pancreas, listed as FGTI-2734), 17.8 µM; with BxPC3 (Homo sapiens, BXPC-3, BxPC3, pancreas), 17.2 µM. Further, the IC50 with MCF-7 came to 4.42 ± 0.92 µM; with Capan-2 (Capan-2, pancreas, listed as FGTI-2734) it was 30 µM; with Capan-2 (Homo sapiens, Capan-2, Capan-2, pancreas) it was 24 µM; in the experiment on HPDE-C7-Kras (Homo sapiens), 6.6 µM; with HPDE-C7-Kras (listed as FGTI-2734), 8.7 µM. Moreover, the “selectivity (ratio of GGTase-I to FTase IC50s)” value on hFTase (GGTase-I IC50 / hFTase IC50) is listed as 2.1. For the same compound, the “inhibition of K-Ras prenylation” value with K-Ras prenylation is given as “inhibited”. Moreover, the p27Kip1 protein levels result in the experiment with p27Kip1 is recorded as “induces”.
